Test results reported in US6528536B1, “Fungicidal mixtures” (BASF Aktiengesellschaft, priority 1997, dated 2003).

System: powdery mildew of wheat (Erysiphe graminis forma specialis tritici)
Assay: Activity against powdery mildew of wheat (protective spray on wheat seedlings, greenhouse)
Assay type: in vivo
Conditions: evaluated after 7 days
From the text: The active ingredients, separately or together, were formulated as a 10% emulsion in a mixture of 70% by weight of cyclohexanone, 20% by weight of Nekanil® LN (Lutensol® AP6, wetting agent having emulsifying and dispersing action, based on ethoxylated alkylphenols) and 10% by weight of Emulphor® EL (Emulan® EL, emulsifier based on ethoxylated fatty alcohols) and diluted with water to give the desired concentration.
Leaves of wheat seedlings cv. “Fr{umlaut over (u )}hgold” which had been grown in pots were sprayed to runoff point with an aqueous preparation of active ingredient which had been made from a stock solution comprising 10% of active compound, 63% of cyclohexanone and 27% of emulsifier, and, 24 hours after the spray coating had dried on, were dusted with spores of powdery mildew of wheat (Erysiphe graminis forma specialis tritici). […] After 7 days, the extent of mildew development was determined visually in % infection of the total leaf area.
Evaluation was carried out by determining the infected leaf areas in percent. […] The efficacy (E) was calculated as follows using Abbot's formula: […]
The expected degrees of action of the mixtures of the active ingredients were determined using Colby's formula [R. S. Colby, Weeds 15, (1967) 20-22] and compared with the observed degrees of action. […]

## CO/N=C(/C(=O)OC)c1ccccc1COc1ccccc1C [Ia]
0.3 ppm active ingredient in the spray liquor
  Efficacy in % of the untreated contol: 0%
0.6 ppm active ingredient in the spray liquor
  Efficacy in % of the untreated contol: 0%
